Results as given in US20230390171A1, “DEODORANT COMPOSITIONS COMPRISING LIPOPHILIC CARBOXYLIC ACIDS” (The Procter & Gamble Company, priority 2022, published 2023).
Converted amounts (≈) assume the structure as drawn. Where two headings read alike, the source gives them in different places.

Tests used:
[1] = test system: S. epi; test: Minimum Inhibitory Concentration (MIC) of various carboxylic acids; assay type: cell-based; conditions: for potential to inhibit bacteria at an acidic pH: Table 1
Method: The following MIC (Minimum Inhibitory Concentration) was done on various carboxylic acids. […] In this case, the MIC was tested in two different growth media. […] The MIC or minimum inhibitory concentration test determines antimicrobial activity of a material against a specific bacteria. The most commonly employed methods are the tube dilution method and agar dilution method. Test products that are not clear or precipitate the growth media are tested by agar dilution method which is similar to the tube dilution method except dilutions are plated on agar. The tube dilution test is the standard method for determining levels of microbial resistance to an antimicrobial agent. Serial dilutions of the test agent are made in a liquid microbial growth medium which is inoculated with a standardized number of organisms and incubated for a prescribed time. The lowest concentration (highest dilution) of test agent preventing appearance of turbidity (growth) is considered to be the minimal/minimum inhibitory concentration (MIC). At this dilution the test agent is bacteriostatic.

[2] = test system: S. epidermidis; test: Finished Product Soleris Method (detection time, resistance to growth of bacteria); assay type: cell-based; conditions: Table 3; 1.5% acid in clear gel, 1:10 dilution
Method: The products shown in examples 1-14 in Table 2 were tested for their resistance to the growth of bacteria by the Finished Product Soleris Method in a 1:10 dilution with artificial eccrine, pH 6, non-stabilized as provided by Pickering Solutions.
The products shown in examples 15-30 in Table 5 were tested for their resistance to the growth of bacteria by the Finished Product Soleris Method in a 1:10 dilution with artificial eccrine, pH 6, non-stabilized as provided by Pickering Solutions.
The products shown in examples 31-34 in table 8 were tested for their resistance to the growth of bacteria by the Finished Product Soleris Method in a 1:10 dilution with artificial eccrine, pH 6, non-stabilized as provided by Pickering Solutions.
Sample preparation is done in the following manner. The product to be tested is weighed into a vial at a ratio of 1 part product to 10 parts Artificial Eccrine, custom pH 6, non-stabilized as obtained by Pickering Laboratories (cat. No. 1700-0023). In some cases where products have a higher hostility, the dilution in a particular study may be 1 part deodorant product to 100 parts Artificial Eccrine, custom pH 6, non-stabilized. Products are heated to 72° C. for 30 minutes to melt solid products and facilitate dispersion into the artificial eccrine. […] There may be some insoluble media present after dispersion. The dilutions remainder of the procedure is described below in “Analyzing via Soleris”.
• S. epidermidis grown overnight on tryptic soy agar (37 C) • Colony from agar is suspended in 25 ml tryptic soy broth in baffled flask, and incubated overnight on shaking platform (37 C) • 1 ml of overnight culture is diluted into 9 ml of sterile H2O (this serves as the inoculum for experimental formulas) • For testing liquid products, 5 ml of experimental formula transferred to 15 ml conical tube. For testing solid formulations, a 48 or 96-well tissue culture plates is used, with each well containing 100 ul of solidified formulations. Alternately, for solid formulations, collect […] and apply 10-20 g of water and let sit at least 1 hour. […]

[3] = growth media pH 4.2, read-out: MIC S. epi pH 4.2
[4] = growth media pH 7.2, read-out: MIC S. epi pH 7.2

Row | Compound | potential to inhibit bacteria at an acidic pH [1] | MIC [1, 3] | MIC [1, 4] | MIC S. epi pH 4.2 ([1]; growth media pH 4.2) | MIC S. epi pH 7.2 ([1]; growth media pH 7.2) | ability to prevent the growth of bacteria [2]
1 | O=C(O)CCCCCCCC(=O)O [Azelaic Acid, reference compound] | greatest potential to inhibit bacteria at an acidic pH | 125 µg/mL (≈ 664 µM) | > 500 µg/mL |  |  | 
2 | CCCCCCCCC(O)C(=O)O (stereo not shown) [Hydroxycapric Acid] | greatest potential to inhibit bacteria at an acidic pH |  |  | 15.6 ppm | >2500 ppm | strong ability to prevent the growth of bacteria
3 | O=c1cc(CO)occ1O [Kojic Acid] |  | > 500 µg/mL | > 500 µg/mL |  |  | 
4 | O=C(O)c1ccccc1O [salicylic acid, reference compound] |  |  |  |  |  | strong ability to prevent the growth of bacteria
5 | CCCCCCCC(=O)Oc1ccccc1C(=O)O [Capryloyl Salicylic Acid] | greatest potential to inhibit bacteria at an acidic pH | 4 µg/mL (≈ 15.1 µM) | 125 µg/mL (≈ 473 µM) |  |  | 
6 | O=C(O)C(O)c1ccccc1 (stereo not shown) [Mandelic Acid] | greatest potential to inhibit bacteria at an acidic pH | 312 µg/mL (≈ 2050 µM) | > 2500 µg/mL |  |  | strong ability to prevent the growth of bacteria
7 | O=C(O)c1ccc(O)c(O)c1 [Protocatechuic Acid] |  | 500 µg/mL (≈ 3240 µM) | > 500 µg/mL |  |  | 
